Test results as given in US9060985B2, “Use of rosmarinic acid and the derivatives thereof to treat ciguatera” (priority 2009, dated 2015).
Values after ≈ are worked out from the molar mass of the structure shown.

Columns and labels:
[1] = tested on: ciguatoxins; details: cited from earlier work
[2] = tested on: neuroblastoma cell cultures; test: Inhibition of the cytotoxicity caused by extracts of toxic loach or toxic giant clams on neuroblastoma cell cultures (MTT, with ouabain/veratridine); format: cell-based
Protocol: The sample of salmon-pink loach (Ref15), supplied by the Louis Malardé Institute, was collected at Mururoa (Tuamotu Archipelago, French Polynesia). The sample of giant clam (GPS59) was collected at Raivavae (Austral Islands, French Polynesia). The toxicity of these two samples was confirmed beforehand on mice, by a cytotoxicity assay on neuroblastomas and radioligand assays with P-CTX-3.
The samples are stored at 4° C. The rosmarinic acid was obtained from Sigma.
96-well plates are prepared with 50 000 cells in 100 μL of medium per well. The outer wells are not used, to avoid variations of response due to edge effects. The cells are incubated for 24 h at 37° C. with 5% CO2 to give them time to adhere.
A mixture of ouabain (cardiac glycoside involved in cellular permeability, inhibiting the Na/K pump) and veratridine (polycyclic alkaloid which leads to persistent activation of the sodium channels), designated O/V hereinafter, in which the two active substances are present respectively at a final concentration of 0.33 and 0.033 mM in 20 μl, is added to the wells.
Ouabain is an inhibitor of ATPase Na^+/K^+, and veratridine is an activator of the sodium channels. The combined action of these two products induces a raised intracellular level of sodium and causes a change in the morphology of the cells, which greatly reduces their viability. […]
All the plates have a standard control of culture medium (cells only) and a control with cells in the presence of the O/V mixture. Rosmarinic acid is tested alone with the O/V mixture to record effects of cytotoxicity or of cellular proliferation as well as any interferences of coloration due to strong concentrations of products, which can lead to false positives in spectrophotometer readings. […]
After incubation for 1.5 h, the formazan crystals that formed are dissolved with 150 μL of DMSO (dimethylsulfoxide) for each well. After homogenization, the plates are read with a UV plate reader at 490 nm. Then the data are transferred and processed using Excel® and analyzed with the GraphPad Prism® software (version 4).

[3] = tested on: voltage-dependent sodium channels; format: binding, rat
[4] = tested on: mouse; details: cited from earlier work
[5] = tested on: symptoms of ciguatera; details: cited from earlier work

SMILES: C=C/C=C\CC[C@H]1O[C@H]2CC[C@@]3(C)O[C@H]4[C@@H](O)C[C@@]5(C)O[C@@H](CC/C=C(C)/C(C)=C/C=O)[C@@H](C)C[C@@H]5O[C@@H]4C[C@@H]3O[C@@H]2CC[C@@]1(C)O [brevenal]
- inhibition of neurotoxic effects induced by the ciguatoxins [1]: powerful inhibitor

SMILES: O=C(/C=C/c1ccc(O)c(O)c1)O[C@H](Cc1ccc(O)c(O)c1)C(=O)O [rosmarinic acid, (R)-a-[[3-(3,4-dihydroxyphenyl)-1-oxo-2E-propenyl]oxy]-3,4-dihydroxybenzenepropanoic acid]
- IC50 ([2]; Neuroblastoma cell, neuroblastomas, toxic extracts, estimated, read-out: IC50 (concentration for 50% decrease in cellular mortality caused by ciguatoxins and associated toxins)): 500 to 1000 µg/mL (≈ 1390 to 2780 µM)
- concentration from which cellular viability is significantly increased ([2]; toxic giant clam extract GPS59 at 100 μg/ml, O/V mixture): ≥ 50 µg/mL
- effect on cellular viability of neuroblastomas (cytotoxicity of toxic giant clam extract) ([2]; toxic giant clam extract GPS59 at 100 μg/ml, O/V mixture, rosmarinic acid 10 to 1000 μg/ml, 18 h, MTT): protective effect
- IC50 (50% inhibition of interaction with [^3H]PbTx-3) [3]: 0.88 mg/mL
- Ki [3]: 1.43 mM
- measured radioactivity (replacement of tritiated brevetoxin on the sodium channels) [3]: decrease in the measured radioactivity
- toxicity ([4]; at 531 mg/kg i.v. in the mouse): does not display toxicity
- LD50 ([4]; intravenously (i.v.) in the mouse): 531 mg/kg

SMILES: OC[C@@H](O)[C@@H](O)[C@H](O)[C@H](O)CO [mannitol, Mannitol]
- effect on neurological and muscular disorders ([5]; administered 48 to 72 hours after intoxication): capable of alleviating neurological and muscular disorders
- effect on the symptoms of ciguatera ([5]; blind clinical trials, mannitol and a saline solution, after 24 hours): did not, however, show a beneficial effect
